Assay [1] concerns the target Glutamate metabotropic receptor 5 (Cavia porcellus, UniProt H0VDS0).
The target of assay [2] is Glutamate metabotropic receptor 1 (Sus scrofa, UniProt F1S737).

Molecules are shown by their SMILES. Several values for one entry are separate records, joined by “and”; a condition that tells them apart may be missing. Equal entries are not always repeated.

Sequence of Glutamate metabotropic receptor 5 (H0VDS0 whole entry): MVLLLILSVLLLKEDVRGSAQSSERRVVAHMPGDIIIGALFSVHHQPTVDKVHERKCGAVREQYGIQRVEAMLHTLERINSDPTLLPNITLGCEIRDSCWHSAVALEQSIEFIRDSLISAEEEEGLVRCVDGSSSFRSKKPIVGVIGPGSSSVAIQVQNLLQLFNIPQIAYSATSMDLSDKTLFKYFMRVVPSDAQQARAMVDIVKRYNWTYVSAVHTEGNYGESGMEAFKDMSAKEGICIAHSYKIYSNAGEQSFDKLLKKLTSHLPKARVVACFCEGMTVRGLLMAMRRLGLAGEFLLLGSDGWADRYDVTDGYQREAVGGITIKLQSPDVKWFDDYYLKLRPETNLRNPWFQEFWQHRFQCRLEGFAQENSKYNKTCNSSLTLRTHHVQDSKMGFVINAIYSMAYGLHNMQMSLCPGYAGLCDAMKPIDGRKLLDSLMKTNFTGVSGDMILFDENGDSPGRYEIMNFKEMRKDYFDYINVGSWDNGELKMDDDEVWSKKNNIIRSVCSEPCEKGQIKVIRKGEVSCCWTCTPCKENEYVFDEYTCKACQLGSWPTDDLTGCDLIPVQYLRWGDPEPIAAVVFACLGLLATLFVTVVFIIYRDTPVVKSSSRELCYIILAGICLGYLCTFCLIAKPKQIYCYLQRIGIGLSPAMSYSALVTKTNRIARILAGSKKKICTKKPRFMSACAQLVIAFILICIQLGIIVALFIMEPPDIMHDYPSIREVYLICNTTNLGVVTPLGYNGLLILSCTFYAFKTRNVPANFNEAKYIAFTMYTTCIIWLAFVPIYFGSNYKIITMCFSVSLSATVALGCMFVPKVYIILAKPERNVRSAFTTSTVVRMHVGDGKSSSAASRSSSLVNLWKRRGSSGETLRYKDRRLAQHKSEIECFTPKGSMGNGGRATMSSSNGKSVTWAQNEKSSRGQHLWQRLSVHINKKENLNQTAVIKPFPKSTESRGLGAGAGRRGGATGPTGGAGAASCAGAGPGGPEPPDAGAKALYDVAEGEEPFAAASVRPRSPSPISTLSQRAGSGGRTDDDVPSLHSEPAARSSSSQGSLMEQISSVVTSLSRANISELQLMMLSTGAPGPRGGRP
Sequence of Glutamate metabotropic receptor 1 (F1S737 whole entry): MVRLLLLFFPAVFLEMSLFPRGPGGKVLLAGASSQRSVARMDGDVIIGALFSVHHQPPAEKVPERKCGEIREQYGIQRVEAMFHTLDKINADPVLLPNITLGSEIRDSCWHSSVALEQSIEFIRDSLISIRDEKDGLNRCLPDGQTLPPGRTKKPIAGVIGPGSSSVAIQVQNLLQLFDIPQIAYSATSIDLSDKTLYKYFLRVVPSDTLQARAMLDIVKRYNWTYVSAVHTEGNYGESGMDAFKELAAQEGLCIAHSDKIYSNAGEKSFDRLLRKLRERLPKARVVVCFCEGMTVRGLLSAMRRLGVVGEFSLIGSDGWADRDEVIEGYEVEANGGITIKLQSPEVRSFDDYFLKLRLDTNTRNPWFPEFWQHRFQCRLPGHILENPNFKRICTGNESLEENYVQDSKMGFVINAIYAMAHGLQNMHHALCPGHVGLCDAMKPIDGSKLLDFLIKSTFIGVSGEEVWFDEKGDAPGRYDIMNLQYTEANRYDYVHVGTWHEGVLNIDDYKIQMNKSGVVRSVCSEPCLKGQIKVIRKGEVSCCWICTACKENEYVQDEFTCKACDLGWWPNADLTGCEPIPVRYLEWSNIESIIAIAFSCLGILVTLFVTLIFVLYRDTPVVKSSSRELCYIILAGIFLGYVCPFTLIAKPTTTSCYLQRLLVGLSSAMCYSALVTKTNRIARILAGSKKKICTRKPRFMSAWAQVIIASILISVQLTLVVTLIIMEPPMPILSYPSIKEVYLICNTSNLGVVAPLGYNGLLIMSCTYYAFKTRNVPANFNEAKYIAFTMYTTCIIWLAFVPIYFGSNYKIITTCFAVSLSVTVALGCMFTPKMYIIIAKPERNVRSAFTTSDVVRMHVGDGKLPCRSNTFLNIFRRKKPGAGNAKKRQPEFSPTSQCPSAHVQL

As for `N[C@]1(C(=O)O)CC[C@@H](C(=O)O)C1`, the inhibition constant (Ki) in assay [1] and in assay [2] was greater than 10 µM in each case.

For the compound `N[C@@]1(C(=O)O)CC[C@H](C(=O)O)C1` [1S, 3R-ACPD], the inhibitory constant (Ki) – broadly, the dissociation constant of the complex between target and ligand, obtained from inhibition or displacement – in assay [1] is > 10 µM and 6.7 µM and 5.3 µM; in assay [2] it was > 10 µM and 9.3 µM.

For the compound `N[C@@H](Cn1oc(=O)[nH]c1=O)C(=O)O` [2-amino-3-(3,5-dioxo[1,2,4]oxadiazolidin-2-yl)propionic acid], the Ki in assay [1] was 0.022 µM and 0.047 µM; in assay [2], 0.26 µM.

For the compound `NC(C(=O)O)c1cc(=O)[nH]o1` (stereo not given) [Amino-(3-hydroxy-isoxazol-5-yl)-acetic acid(Ibotenic acid)], the Ki was 2.87 µM and 1.93 µM in assay [1]; greater than 10 µM in assay [2].

Consider `N[C@@H](CCC(=O)O)C(=O)O` [L-Glutamic acid], for which the Ki in assay [1] was 9.75 µM and 7.67 µM; in assay [2] it was greater than 10 µM.

Values taken from BindingDB's records for PubMed 7751958 (Cnrs Ccipe, 1995).
